Results taken from ChEMBL document CHEMBL5120927, “LEGO-Lipophosphonoxins: A Novel Approach in Designing Membrane Targeting Antimicrobials” (J Med Chem, 2022).

Tests used:
[1] = test system: Staphylococcus aureus; experiment: Antibacterial activity against Staphylococcus aureus ATCC 29213 = CCM 4223 assessed as inhibition of bacterial growth incubated for 24 hrs in presence of BSA by microdilution assay; assay type: functional
[2] = test system: Escherichia coli; experiment: Antibacterial activity against Escherichia coli ATCC 25922 = CCM 3954 assessed as inhibition of bacterial growth incubated for 24 hrs in presence of BSA by microdilution assay; assay type: functional
[3] = test system: Enterococcus faecalis; experiment: Antibacterial activity against Enterococcus faecalis ATCC 29212 = CCM 4224 assessed as inhibition of bacterial growth incubated for 24 hrs by microdilution assay; assay type: functional
[4] = test system: Pseudomonas aeruginosa; experiment: Antibacterial activity against multidrug-resistant Pseudomonas aeruginosa assessed as reduction in microbial growth incubated for 24 hrs by microdilution assay; assay type: functional
[5] = test system: Staphylococcus epidermidis; experiment: Antibacterial activity against Staphylococcus epidermidis CCM 7221 assessed as inhibition of bacterial growth incubated for 24 hrs by microdilution assay; assay type: functional
[6] = test system: Escherichia coli; experiment: Antibacterial activity against Escherichia coli ATCC 25922 = CCM 3954 assessed as inhibition of bacterial growth incubated for 24 hrs by microdilution assay; assay type: functional
[7] = test system: Enterococcus faecium; experiment: Antibacterial activity against vancomycin resistant Enterococcus faecium 419/ANA assessed as reduction in microbial growth incubated for 24 hrs by microdilution assay; assay type: functional
[8] = test system: Staphylococcus aureus; experiment: Antibacterial activity against methicillin resistant Staphylococcus aureus 4591/A assessed as reduction in microbial growth incubated for 24 hrs by microdilution assay; assay type: functional
[9] = Gradient chromatographic hydrophobicity index of the compound at pH 3.7 by HPLC analysis; assay type: ADME
[10] = test system: Pseudomonas aeruginosa; experiment: Antibacterial activity against Pseudomonas aeruginosa ATCC 27853 = CCM 3955 assessed as inhibition of bacterial growth incubated for 24 hrs by microdilution assay; assay type: functional
[11] = test system: Staphylococcus aureus; experiment: Antibacterial activity against Staphylococcus aureus ATCC 29213 = CCM 4223 assessed as inhibition of bacterial growth incubated for 24 hrs by microdilution assay; assay type: functional
[12] = Hemolytic activity in human RBC assessed as haemoglobin release measured after 3 hr; assay type: toxicity, cell-based, Erythrocyte; details: red blood cells (erythrocytes)
[13] = test system: Escherichia coli; experiment: Antibacterial activity against multidrug-resistant Escherichia coli CE5556 expressing CTX-M-15 assessed as reduction in microbial growth incubated for 24 hrs by microdilution assay; assay type: functional

SMILES	MIC [1] [mg/L]	MIC [2] [mg/L]	MIC [3] [mg/L]	MIC [4] [mg/L]	MIC [5] [mg/L]	MIC [6] [mg/L]	MIC [7] [mg/L]	MIC [8] [mg/L]	CHI [9]	MIC [10] [mg/L]	MIC [11] [mg/L]	HC50 at 3 h [12] [µg/mL]	MIC [13] [mg/L]
CCC/C=C\CCOP(=O)(CCN(CCN)CCN)OCCCCCCCOP(=O)(CCN(CCN)CCN)OCC/C=C\CCC.Cl.Cl.Cl.Cl.Cl.Cl (stereo not given)	4	16	16	32	0.5	> 128	128	1	37.4	32	2	> 500	32
Cl.Cl.Cl.Cl.Cl.Cl.NCCCN(CCCN)CCP(=O)(OCCCCCCCOP(=O)(CCN(CCCN)CCCN)OCCCC(F)(F)F)OCCCC(F)(F)F (stereo not given)	> 128	> 128	> 128	> 128	128	128	> 128	> 128	24.6	> 128	> 128	> 200	> 128
CCCCCOP(=O)(CCN(CCCN)CCCN)OCCCCCCCCCCOP(=O)(CCN(CCCN)CCCN)OCCCCC.Cl.Cl.Cl.Cl.Cl.Cl (stereo not given)	8	> 128	32	8	1	2	128	2	31.3	16	2	159	128
CC/C=C\CCCOP(=O)(CCN(CCCN)CCCN)OCCCOP(=O)(CCN(CCCN)CCCN)OCCC/C=C\CC.Cl.Cl.Cl.Cl.Cl.Cl (stereo not given)	> 128	> 128	> 128	> 128	32	> 128	> 128	64	25.1	> 128	128	> 200	> 128
Cl.Cl.Cl.Cl.Cl.Cl.NCCCN(CCCN)CCP(=O)(OCCCCCCOP(=O)(CCN(CCCN)CCCN)OCC1CCCC1)OCC1CCCC1 (stereo not given)	> 128	> 128	> 128	> 128	64	> 128	> 128	128	14.8	> 128	128	> 1000	> 128
CCCCCCOP(=O)(CCN(CCN)CCN)OCCCCCCCCOP(=O)(CCN(CCN)CCN)OCCCCCC.Cl.Cl.Cl.Cl.Cl.Cl (stereo not given)	1	16	16	64	2	8	128	2	38.6	32	2	231	64
CCC/C=C\CCOP(=O)(CCN(CCCNC(=N)N)CCCNC(=N)N)OCCCCCCOP(=O)(CCN(CCCNC(=N)N)CCCNC(=N)N)OCC/C=C\CCC.Cl.Cl.Cl.Cl.Cl.Cl (stereo not given)	2	2	64	64	2	2	> 128	2	29.7	64	2	> 500	2
Cl.Cl.Cl.Cl.Cl.Cl.NCCCN(CCCN)CCP(=O)(OCCCCCCCCCCOP(=O)(CCN(CCCN)CCCN)OCCc1ccccc1)OCCc1ccccc1 (stereo not given)	4	32	32	64	1	16	128	2	31.1	64	2	> 500	64
CCCCCCCCCCOP(=O)(CCN(CCCN)CCCN)OCCCOP(=O)(CCN(CCCN)CCCN)OCCCCCCCCCC.Cl.Cl.Cl.Cl.Cl.Cl (stereo not given)	1	4	1	2	1	1	4	1	43.7	2	1	31.6	1
CCCCCCCCCCOP(=O)(CCN(CCCN)CCCN)OCCCCCCCCCCOP(=O)(CCN(CCCN)CCCN)OCCCCCCCCCC.Cl.Cl.Cl.Cl.Cl.Cl (stereo not given)	1	16	2	4	1	> 2	2	1	46.9	4	2	5.2	2
